Article PMC4835159 (Journal of Medicinal Chemistry, 2016)
≈ marks a conversion by molar mass, not a printed value. Read-outs that look alike come from different tables or passages of the source.

T1: CYP125 (Mycobacterium tuberculosis, UniProt P9WPP1)
T1 sequence (P9WPP1 1-433): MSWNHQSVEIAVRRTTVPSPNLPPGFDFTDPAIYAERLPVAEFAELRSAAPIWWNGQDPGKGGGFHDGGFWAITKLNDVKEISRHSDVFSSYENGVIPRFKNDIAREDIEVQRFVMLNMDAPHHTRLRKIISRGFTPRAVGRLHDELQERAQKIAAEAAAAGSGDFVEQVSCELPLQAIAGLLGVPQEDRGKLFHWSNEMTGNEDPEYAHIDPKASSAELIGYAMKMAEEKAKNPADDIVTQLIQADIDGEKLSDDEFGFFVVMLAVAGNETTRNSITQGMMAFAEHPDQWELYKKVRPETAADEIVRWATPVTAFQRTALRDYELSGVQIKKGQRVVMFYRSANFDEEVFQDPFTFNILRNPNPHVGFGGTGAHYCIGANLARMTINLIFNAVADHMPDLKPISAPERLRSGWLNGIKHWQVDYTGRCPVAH

T2: CYP144TR (Mycobacterium tuberculosis, UniProt P9WPL1)
T2 sequence (P9WPL1 31-434 limits assumed): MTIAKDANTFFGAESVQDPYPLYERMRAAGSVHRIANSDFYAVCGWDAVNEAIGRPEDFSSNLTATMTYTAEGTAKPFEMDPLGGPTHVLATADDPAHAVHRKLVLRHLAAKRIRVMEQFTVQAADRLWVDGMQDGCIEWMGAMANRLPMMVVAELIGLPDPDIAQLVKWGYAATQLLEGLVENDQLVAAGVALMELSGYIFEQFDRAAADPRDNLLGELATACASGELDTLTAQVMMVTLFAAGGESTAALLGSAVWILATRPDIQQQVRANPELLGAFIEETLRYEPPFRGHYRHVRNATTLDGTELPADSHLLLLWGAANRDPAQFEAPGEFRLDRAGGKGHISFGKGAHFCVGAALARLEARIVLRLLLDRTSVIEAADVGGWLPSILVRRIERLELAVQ

B1: Mycobacterium tuberculosis CYP121 (Rv2276), His6-tagged construct (enzyme)
chain: MTATVLLEVPFSARGDRIPDAVAELRTREPIRKVRTITGAEAWLVSSYALCTQVLEDRRFSMKETAAAGAPRLNALTVPPEVVNNMGNIADAGLRKAVMKAITPKAPGLEQFLRDTANSLLDNLITEGAPADLRNDFADPLATALHCKVLGIPQEDGPKLFRSLSIAFMSSADPIPAAKINWDRDIEYMAGILENPNITTGLMGELSRLRKDPAYSHVSDELFATIGVTFFGAGVISTGSFLTTALISLIQRPQLRNLLHEKPELIPAGVEELLRINLSFADGLPRLATADIQVGDVLVRKGELVLVLLEGANFDPEHFPNPGSIELDRPNPTSHLAFGRGQHFCPGSALGRRHAQIGIEALLKKMPGVDLAVPIDQLVWRTRFQRRIPERLPVLW

Experiments:
CYP125 = target: T1, CYP125; experiment: Single shot UV–vis binding mode assay on CYP125
CYP144TR = target: T2, CYP144TR
Mtb H37Rv = experiment: Antimycobacterial activity assay (MIC90); assay type: cell-based, Mycobacterium tuberculosis; set-up: key to MIC90: “N” indicates that compounds did not produce any significant cell death within the tested concentration range; settings: triplicate, 0–100 μM, 2 weeks
CYP121 [1] = target: T3, CYP121 (Mycobacterium tuberculosis, UniProt P9WPP7); experiment: Native mass spectrometry of CYP121 with ligands; assay type: binding
CYP121 [2] = target: T3, CYP121; assay type: binding
[3] = test system: CYP1A (combined CYP1A1 and CYP1A2); experiment: Human P450 inhibition in human liver microsomes, CYP1A (ethoxyresorufin); settings: human
CYP121 [4] = target: T3, CYP121; experiment: Single shot UV–vis absorbance assay (Soret band shift, competition with type II inhibitor) on CYP121; assay type: binding; settings: for Binding Mode, CYP121: analogues 100 μM or 1 mM, P450 2.5–5 μM
CYP143 = target: T4, CYP143 (Mycobacterium tuberculosis, UniProt P9WPL3); experiment: Single shot UV–vis binding mode assay on CYP143; settings: analogues 100 μM or 1 mM, P450 2.5–5 μM
T4 construct: made in house
T4 sequence (P9WPL3 whole entry): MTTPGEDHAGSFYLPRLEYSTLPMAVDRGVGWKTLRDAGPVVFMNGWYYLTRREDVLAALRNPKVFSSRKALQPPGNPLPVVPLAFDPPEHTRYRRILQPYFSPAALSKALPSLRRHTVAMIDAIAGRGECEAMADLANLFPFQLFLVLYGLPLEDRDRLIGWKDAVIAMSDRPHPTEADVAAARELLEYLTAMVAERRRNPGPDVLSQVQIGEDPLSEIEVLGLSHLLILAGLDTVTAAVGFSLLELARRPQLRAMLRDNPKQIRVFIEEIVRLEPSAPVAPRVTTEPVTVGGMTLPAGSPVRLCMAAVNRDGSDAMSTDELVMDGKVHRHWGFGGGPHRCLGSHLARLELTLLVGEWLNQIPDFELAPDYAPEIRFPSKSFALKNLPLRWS
Experimental: UV–vis screening was performed using a CARY400 UV–vis spectrophotometer (Varian, CA, USA). Ligands were prepared as DMSO-d6 stock solutions (1–100 mM) and added to protein (5 μM) solutions (198 μL) or to buffer alone to give a final DMSO-d6 concentration of 1% v/v. CYP121 was prepared in 50 mM Tris-HCl (pH 7.2), 1 mM EDTA buffer. CYP125, CYP126, CYP142, CYP143, and CYP144 were prepared in 50 mM Tris-HCl (pH 7.5), 100 mM KCl buffer. CYP124 was prepared in 100 mM potassium phosphate (pH 7.0), 100 mM KCl buffer. Spectra were recorded between 800 and 250 nm at 25 °C. Any spectral interference from the inherent absorbance of added ligands/solvent was removed by subtracting spectra collected for protein-free samples of the same ligands/solvent in buffer. The difference in Soret wavelength maximum (Δλmax) of the respective P450s Soret band (λmax) in the presence of ligands compared to that obtained for a 1% v/v DMSO-d6 control was used to identify type I or type II heme-binding interactions. […]
The difference in the red-shift of the Soret band between competition assays and that found for the known type II ligand in the absence of competing ligands was used to determine competitive binding. Buffer control spectra were collected to account for any inherent absorbance of added ligands/solvent and all solutions were inspected and found to be free of precipitate. […]

CYP1A = experiment: Human P450 inhibition in human liver microsomes, CYP1A (ethoxyresorufin); settings: IC50 for CYP1A versus CYP121 KD
native MS = target: the molecule itself; experiment: native MS

Molecule | Binding Mode, CYP125 (CYP125) | Binding Mode, CYP144TR (CYP144TR) | Monomer (%) of CYP121 (CYP121 [1]; Protein-Ligand Ratio 1:0.5) [%] | ligand binding stoichiometry, CYP121 Dimer (CYP121 [1]; Protein-Ligand Ratio 1:0.5) | ligand binding stoichiometry, CYP121 Monomer (CYP121 [1]; Protein-Ligand Ratio 1:0.5) | Monomer (%) of CYP121 (CYP121 [1]; Protein-Ligand Ratio 1:1) [%] | ligand binding stoichiometry, CYP121 Dimer (CYP121 [1]; Protein-Ligand Ratio 1:1) | ligand binding stoichiometry, CYP121 Monomer (CYP121 [1]; Protein-Ligand Ratio 1:1) | Monomer (%) of CYP121 (CYP121 [1]; Protein-Ligand Ratio 1:25) [%] | ligand binding stoichiometry, CYP121 Dimer (CYP121 [1]; Protein-Ligand Ratio 1:25) | ligand binding stoichiometry, CYP121 Monomer (CYP121 [1]; Protein-Ligand Ratio 1:25) | LE (ligand efficiency) (CYP121 [2]) | Binding Mode, CYP143 (CYP143) | MIC90 (Mtb H37Rv) | Binding Mode, CYP121 (CYP121 [4]) | other results
Nc1cccc(-c2cccc(-c3c(-c4ccc(O)cc4)n[nH]c3N)c2)c1 [25a, 4-(5-Amino-4-(3′-amino-[1,1′-biphenyl]-3-yl)-1H-pyrazol-3-yl)phenol] | N | N | 14 | 1 | 1 | 13 | 2 | 1 | 0 | 2 | 1 | 0.41 | – | – | – | MIC90 (Mtb H37Rv; Mycobacterium tuberculosis, 336 h, read-out: MIC90): 100 µM (≈ 34.2 µg/mL); selectivity ratio [3]: ~15000; shifts in the CYP121 optical spectrum (CYP121 [4]; UV–vis spectroscopy): type II shifts; Δλmax (type II shift) (CYP121 [4]; ligand 100 μM, CYP121): +5.0 nm
Oc1ccc(CNc2[nH]nc(-c3ccc(O)cc3)c2-c2ccc(O)cc2)cc1 [26a, 4,4′-(5-((4-Hydroxybenzyl)amino)-1H-pyrazole-3,4-diyl)diphenol] | – | N | 14 | 1 | 0 | 29 | 1 | 0 | 14 | 2 | 1 | 0.25 | N | N | N | app SR (IC50/KD) (CYP1A): >4
Nc1[nH]nc(-c2ccc(O)cc2)c1-c1ccc(O)cc1 [compound 5, 4,4′-(5-Amino-1H-pyrazole-3,4-diyl)diphenol] | N | N | – | – | – | – | – | – | – | – | – | – | N | N | N | LE (ligand efficiency) (CYP121 [2]; Gibbs free energy of binding to CYP121 divided by number of heavy atoms (ΔG/HA)): 0.30
B1 | – | – | – | – | – | – | – | – | – | – | – | – | – | – | – | stoichiometry N (native MS): 2
